In patent publication US7550468B2, “Theophylline and 3-isobutyl-1 methylxanthine based N-7 substituted derivatives displaying inhibitory activities on PDE-5 phospodiesterase” (priority 2000, dated 2009):

Experiments:
intracavernous pressure = experiment: Intracavernous pressure and tumescence response in rabbits; format: in vivo; settings: 2 mg/kg in rabbits
PDE5 (human platelet) = biological target: T1, PDE5 (human platelet) (Homo sapiens, UniProt O76074); experiment: PDE5 (human platelet) inhibition; format: biochemical
T1 construct: PDE5 (human); from tissue; host or cells: human platelets

Rabbit Corpus Cavernosal = experiment: Relaxation of phenylephrine precontracted rabbit corpus cavernosal strips; format: cell-based; settings: for IC50 / EC50: Oryctolagus cuniculus
Description: Recently some reports have stated that theophyllline has an adenosine […] antagonist and phosphodiesterase (PDE) inhibitor function. […] FIG. 4A illustrates the experimental results and the effects of compound 14 on phenylphrine precontracted rabbit corpus cavemosal in the absence and presence of L-NAME, methylene blue, ODQ. FIG. 4B illustrates the experimental results and the effects of compound 14 on phenylphrine precontracted rabbit corpus cavernosal in absence and presence of potassium channel blockers.

Molecule	Duration of tumescence response (intracavernous pressure) [min]	Peak increased intracavernous pressure ΔICP (mmHg) (intracavernous pressure)	IC50 (PDE5 (human platelet)) [nM]	IC50 (Rabbit Corpus Cavernosal) [nM]	also measured
CC(C)Cn1c(=O)n(C)c(=O)c2c1ncn2CCN1CCN(c2ncccn2)CC1 [Compound 12, 7-{2-[4-(2-Pyrimidyl)piperazinyl]ethyl}-3-isobutyl-1-methylxanthine]	15 ± 1.3	23 ± 1.5	–	–	–
Cn1c(=O)c2c(ncn2CCN2CCN(c3ccccc3Cl)CC2)n(C)c1=O [Compound 4, 7-{2-[4-(2-chlorophenyl)piperazinyl]ethyl}-1,3-dimethylxanthine]	14 ± 1.1	14 ± 2.1	3.9 ± 0.1	69.2	–
CC(C)Cn1c(=O)n(C)c(=O)c2c1ncn2CCN1CCN(c2ccccc2Cl)CC1 [Compound 14, 7-{2-[4-(2-chlorophenyl)piperazinyl]ethyl}-3-isobutyl-1-methylxanthine]	–	–	3.8 ± 0.2	14.5	EC50 (Rabbit Corpus Cavernosal; Control (no drug pretreatment)): 64.6 nM; EC50 (Rabbit Corpus Cavernosal; pretreatment 4-AP 100 μM): 1480 nM; EC50 (Rabbit Corpus Cavernosal; pretreatment Glibenclamide 1 μM): 269 nM; EC50 (Rabbit Corpus Cavernosal; pretreatment L-NAME 100 μM): 309 nM; EC50 (Rabbit Corpus Cavernosal; pretreatment Methylene blue 10 μM): 309 nM; EC50 (Rabbit Corpus Cavernosal; pretreatment ODQ 1 μM): 162 nM; EC50 (Rabbit Corpus Cavernosal; pretreatment TEA 10 mM): 9180 nM
Cc1ccccc1S(=O)(=O)N1CCN(CCn2cnc3c2c(=O)n(C)c(=O)n3CC(C)C)CC1 [Compound 26, 7-(2-{4-[(2-methylphenyl)sulfonyl]piperazinyl}ethyl)-3-isobutyl-1-methylxanthine]	–	–	4.8 ± 0.2	38	–
7-{2-[(2-propoxybenzyl)aniino]ethyl}-3-isobutyl-1-methylxanthine [Compound 38]	–	–	0.6 ± 0.2	–	pEC50 (−log EC50) for relaxation (Rabbit Corpus Cavernosal): 8.16 ± 0.07
CC(C)Cn1c(=O)n(C)c(=O)c2c1ncn2CCN1CCN(Cc2ccccc2)CC1 [Compound 17, 7-{2-[4-benzylpiperazinyl]ethyl}-3-isobutyl-1-methylxanthine]	–	–	6.2 ± 0.2	22.9	–
7-[12-({5-[(4-methylpiperazin-1-yl)sulfonyl]-2-propoxybenzyl}amino)ethyl] dimethylxanthine [Compound 35]	–	–	0.4 ± 0.1	–	pEC50 (−log EC50) for relaxation (Rabbit Corpus Cavernosal): 8.25 ± 0.06
CCOc1ccc(S(=O)(=O)N2CCN(C)CC2)cc1CNCCn1cnc2c1c(=O)n(C)c(=O)n2C [Compound 34, 7-[2-({5-[(4-methylpiperazin-1-yl)sulfonyl]-2-ethoxybenzyl}amino)ethyl] dimethylxanthine]	–	–	0.4 ± 0.2	–	pEC50 (−log EC50) for relaxation (Rabbit Corpus Cavernosal): 8.13 ± 0.05
7-{2-[4-(nitrobenzene)piperazinyl]ethyl}-1,3-dimethylxanthine [Compound 9]	16 ± 1.2	25 ± 1.3	–	–	–
Cn1c(=O)c2c(ncn2CCN2CCN(Cc3ccccc3)CC2)n(C)c1=O [Compound 7, 7-{2-[4-benzylpiperazinyl]ethyl}-1,3-dimethylxanthine]	–	–	4.2 ± 0.2	74.1	–
CC(C)Cn1c(=O)n(C)c(=O)c2c1ncn2CCN1CCN(C(=O)c2ccco2)CC1 [Compound 18, 7-{2-[4-(2-furoyl)piperazinyl]ethyl}-3-isobutyl-1-methylxanthine]	18 ± 1.3	26 ± 1.4	–	–	–
CCCOc1ccc(C(N)=O)cc1CNCCn1cnc2c1c(=O)n(C)c(=O)n2CC(C)C [Compound 41, 4-propoxy-3-({[2-(3-isobutyl-1-methyl-2,6-dioxo-1,2,3,6-tetrahydro-7H-purin-7-yl)ethyl]amino}methyl)benzamide]	–	–	0.8 ± 0.2	5.01	–
COc1ccccc1N1CCN(CCn2cnc3c2c(=O)n(C)c(=O)n3C)CC1 [Compound 10, 7-{2-[4-(o-Methoxyphenyl)piperazinyl]ethyl}-1,3-dimethylxanthine]	13 ± 2.1	12 ± 1.6	–	–	–
CCCn1cnc2c1c(=O)n(C)c(=O)n2CC(C)C [Compound 46]	–	–	5.2 ± 0.1	–	pEC50 (−log EC50) for relaxation (Rabbit Corpus Cavernosal): 7.96 ± 0.03
